Reference: paper PMC11157491, “Novel Alaninamide Derivatives with Drug-like Potential for Development as Antiseizure and Antinociceptive Therapies—In Vitro and In Vivo Characterization” (ACS Chemical Neuroscience, 2024)
Read-outs that look alike come from different tables or passages of the source.

Assay: Pharmacokinetic study in serum and brain
Assay type: in vivo, mice
Settings: for k el: read-out: λz (converted); for Vd/F: read-out: Vz/F
Experimental: Male CD-1 mice weighing 28–33 g housed in conditions of constant temperature with the 12:12 h light–dark cycle with free access to food and water were used in this study. The investigated compound was suspended in 1% Tween in sterile water for injection (Polpharma, Poland) and administered i.p. at two doses of 25 and 50 mg/kg. Additionally, the compound dissolved in a mixture of dimethylsulfoxide (DMSO), poly(ethylene glycol), and sterile water (1:2:7, v/v/v) was given orally (p.o.) at a dose of 25 mg/kg. The mice were sacrificed by decapitation under isoflurane anesthesia. Blood samples were collected at 5, 15, 30, 60, 120, 240, and 720 min after dosing (n = 3–4), and brains were harvested at the same time points. Blood was allowed to clot at room temperature for 20 min, and serum was separated by centrifugation at 3000 rpm for 10 min. The samples were stored at −80 °C until analysis. All animal procedures were approved by the First Ethics Committee on Animal Experimentation in Kraków (license no. 270/2019).
Before LC-MS/MS analysis, mouse brains were homogenized in distilled water at the ratio of 1:4 (w/v) using the ULTRA-TURRAX T10 basic tissue homogenizer (IKA, Germany). Brain homogenates or serum samples (50 μL) were deproteinized with 150 μL of 0.1% formic acid in acetonitrile with addition of the internal standard (valsartan), shaken for 10 min (IKA Vibrax VXR, Germany), and then centrifuged for 5 min at a speed of 8000g (Eppendorf miniSpin centrifuge, Germany). Supernatants were transferred into autosampler vials, and a sample volume of 1 μL was injected into the LC-MS/MS system. The autosampler temperature was maintained at 15 °C. Analytes were separated on a Hypersil Gold C18 analytical column (3 × 50 mm^2, 5 μm, Thermo Scientific) using an AB Sciex Exion LC AC HPLC system coupled with the triple quadrupole mass spectrometer (Sciex QTRAP 4500, both from the Danaher Corporation). The oven temperature was set at 30 °C. The initial mobile phase composition was 95% B (0.1% formic acid in water) and 5% A (0.1% formic acid in MeCN) for the first 2 min with a linear gradient to 5% B in the next 2 min and then isocratic mode for 2 min with the following rapid change back to 95% B in 0.1 min. The remaining time of elution was set at 95% B. The whole HPLC operation lasted 10 min, and the flow rate was set at 0.4 mL/min. Electrospray ionization (ESI) in the positive ion mode was used for ion production. […] The mass spectrometric conditions were optimized by continuous infusion of the standard solution at a rate of 7 μL/min using a Harvard infusion pump. The ion source temperature was maintained at 450 °C, and the ion spray voltage was set at 5500 V. The curtain gas (CUR) was set at 40 psi and the collision gas (CAD) at Medium. The calibration curves were constructed by plotting the ratio of the peak area of the studied compound to the internal standard (IS) versus drug concentration and generated by weighted (1/x × x) linear regression analysis. […] Working standard solutions were prepared in methanol by the serial dilution of the stock solution at the following concentrations: 0.01, 0.1, 0.25, 0.5, 1, 2.5, 5, 10, 20, 50, 100, and 200 μg/mL. To prepare samples for the calibration curve, 45 μL of the matrix (plasma or brain homogenate) was spiked with 5 μL of the standard working solution at an appropriate concentration level and vortexed for 10 s. For each matrix, there were two calibration curves constructed separately for lower and higher concentrations. Calibrators (as well as samples) from the upper concentration range were additionally 10 times diluted with the precipitating agent. The validated quantitation ranges for this method were from 0.001 to 5 μg/mL and from 0.1 to 20 μg/mL of serum, and from 0.005 to 25 μg/g and from 0.5 to 100 μg/g of the brain. Samples with the concentration of 28 above the upper limit of quantification were diluted 10 times with the blank matrix (serum or brain homogenate). […]

[1] = male, CD-1, mouse, ip, brain, i.p. 25 mg/kg, mice
[2] = male, CD-1, mouse, ip, brain, i.p. 50 mg/kg, mice
[3] = male, CD-1, mouse, ip, serum, i.p. 25 mg/kg, mice
[4] = male, CD-1, mouse, ip, serum, i.p. 50 mg/kg, mice
[5] = male, CD-1, mouse, po, brain, p.o. 25 mg/kg, mice
[6] = male, CD-1, mouse, po, serum, p.o. 25 mg/kg, mice

Compound: CC(=O)NC(C)C(=O)N1CCN(c2cccc(OC(F)(F)F)c2)CC1 (stereo not shown) [Compound 28, N-(1-oxo-1-(4-(3-(Trifluoromethoxy)phenyl)piperazin-1-yl)propan-2-yl)acetamide]
- brain concentration (after 25 mg/kg dose administration): > 10 µM
- AUC0–t (brain, i.p. 25 mg/kg, mice): 347,914.8 ng·min/mL (g)
- AUC0–∞ (brain, i.p. 25 mg/kg, mice): 348,212.5 ng·min/mL (g)
- Cmax (brain, i.p. 25 mg/kg, mice): 13,683.3 ng/mL (g)
- t0.5λz (brain, i.p. 25 mg/kg, mice): 111.39 min
- AUC0–t (brain, i.p. 50 mg/kg, mice): 1,284,194.3 ng·min/mL (g)
- AUC0–∞ (brain, i.p. 50 mg/kg, mice): 1,285,007.9 ng·min/mL (g)
- Cmax (brain, i.p. 50 mg/kg, mice): 39,800.0 ng/mL (g)
- t0.5λz (brain, i.p. 50 mg/kg, mice): 106.52 min
- AUC0–t (brain, p.o. 25 mg/kg, mice): 333,360.7 ng·min/mL (g)
- AUC0–∞ (brain, p.o. 25 mg/kg, mice): 334,667.7 ng·min/mL (g)
- Cmax (brain, p.o. 25 mg/kg, mice): 3799.4 ng/mL (g)
- t0.5λz (brain, p.o. 25 mg/kg, mice): 97.20 min
- Kp (male, CD-1, mouse, brain/serum, intraperitoneal, oral, both doses and routes of administration, read-out: brain-to-serum Cmax and AUC ratio): > 1
- Tmax (male, CD-1, mouse, intraperitoneal, oral, all cases (serum and brain, both doses and routes), read-out: time to reach the maximum concentration (tmax) (converted)): 5 min
- half-life (male, CD-1, mouse, intraperitoneal, oral, serum and brain, both doses and routes (i.p. and p.o.), read-out: elimination half-lives (t1/2)): 58.6 to 111 min
- MRT [1]: 23.6 min
- Tmax (male, CD-1, mouse, ip, brain, i.p. 25 mg/kg, mice, read-out: tmax (converted)): 5 min
- k el [1]: 0.0001 s⁻¹
- MRT [2]: 26.4 min
- Tmax (male, CD-1, mouse, ip, brain, i.p. 50 mg/kg, mice, read-out: tmax (converted)): 5 min
- k el [2]: 0.000117 s⁻¹
- CL/F [3]: 98 mL/min/kg
- MRT [3]: 22 min
- Vd/F [3]: 13.4 L/kg
- Tmax (male, CD-1, mouse, ip, serum, i.p. 25 mg/kg, mice, read-out: tmax (converted)): 5 min
- k el [3]: 0.000117 s⁻¹
- CL/F [4]: 48 mL/min/kg
- MRT [4]: 24.4 min
- Vd/F [4]: 5.89 L/kg
- Tmax (male, CD-1, mouse, ip, serum, i.p. 50 mg/kg, mice, read-out: tmax (converted)): 5 min
- k el [4]: 0.000133 s⁻¹
- MRT [5]: 110 min
- Tmax (male, CD-1, mouse, po, brain, p.o. 25 mg/kg, mice, read-out: tmax (converted)): 5 min
- k el [5]: 0.000117 s⁻¹
- CL/F [6]: 84 mL/min/kg
- MRT [6]: 101 min
- Vd/F [6]: 7.1 L/kg
- Tmax (male, CD-1, mouse, po, serum, p.o. 25 mg/kg, mice, read-out: tmax (converted)): 5 min
- k el [6]: 0.0002 s⁻¹
- AUC0–t (serum, i.p. 25 mg/kg, mice): 254,384.6 ng·min/mL (g)
- AUC0–∞ (serum, i.p. 25 mg/kg, mice): 254,465.4 ng·min/mL (g)
- Cmax (serum, i.p. 25 mg/kg, mice): 11,033.3 ng/mL (g)
- t0.5λz (serum, i.p. 25 mg/kg, mice): 94.29 min
- AUC0–t (serum, i.p. 50 mg/kg, mice): 1,045,787.2 ng·min/mL (g)
- AUC0–∞ (serum, i.p. 50 mg/kg, mice): 1,045,940.8 ng·min/mL (g)
- Cmax (serum, i.p. 50 mg/kg, mice): 37,566.7 ng/mL (g)
- t0.5λz (serum, i.p. 50 mg/kg, mice): 85.42 min
- AUC0–t (serum, p.o. 25 mg/kg, mice): 297,899.7 ng·min/mL (g)
- AUC0–∞ (serum, p.o. 25 mg/kg, mice): 298,019.5 ng·min/mL (g)
- Cmax (serum, p.o. 25 mg/kg, mice): 3740.0 ng/mL (g)
- t0.5λz (serum, p.o. 25 mg/kg, mice): 58.62 min
